Measured values as given in patent US7750017B2, “Heterocycles” (Bayer Schering Pharma Aktiengesellschaft, priority 2004, dated 2010).

Columns and labels:
[1] = tested on: A431 cells [human epidermoid carcinoma, overexpressing HER1 (EGFR, ErbB1)]; assay: In vitro tumor cell proliferation assay (Cell Titer-Glo luminescent cell viability), A431 cells; type: cell-based; conditions: A-431, 72 h, 72 hours of drug exposure, Cell Titer-Glo readout, read-out: IC50, anti-proliferative activity in A431 cells
[2] = tested on: BT474 [human breast carcinoma, overexpressing HER2 (ErbB2)]; assay: In vitro tumor cell proliferation assay (Cell Titer-Glo luminescent cell viability), BT474 cells; type: cell-based; conditions: BT-474, 72 h, 72 hours of drug exposure, Cell Titer-Glo readout, read-out: IC50, anti-proliferative activity in BT474 cells

SMILES | IC50 [1] [µM] | IC50 [2] [µM]
OCCc1ccc2c(c1)sc1ncnc(Nc3ccc4c(cnn4Cc4ccccn4)c3)c12 [Example 132, 2-(4-{[1-(pyridin-2-ylmethyl)-1H-indazol-5-yl]amino}[1]benzothieno [2,3-d]pyrimidin-7-yl)ethanol] | ≤ 5 | ≤ 0.5
OCCc1ccc2c(c1)sc1ncnc(Nc3ccc4c(ccn4Cc4ccccc4)c3)c12 [Example 133, 2-{4-[(1-benzyl-1H-indol-5-yl)amino][1]benzothieno[2,3-d]pyrimidin-7-yl}ethanol] | ≤ 50 | ≤ 0.5
CCOC(=O)Cc1ccc2c(c1)sc1ncnc(Nc3ccc(OCc4cscn4)c(Cl)c3)c12 [Example 134, ethyl (4-{[3-chloro-4-(1,3-thiazol-4-ylmethoxy)phenyl]amino}[1]benzothieno[2,3-d]pyrimidin-7-yl)acetate] | ≤ 50 | ≤ 5
O=C(O)Cc1ccc2c(c1)sc1ncnc(Nc3ccc(OCc4cscn4)c(Cl)c3)c12 [Example 135, (4-{[3-chloro-4-(1,3-thiazol-4-ylmethoxy)phenyl]amino}[1]benzothieno[2,3-d]pyrimidin-7-yl) acetic acid] | ≤ 50 | ≤ 5
CN(C)[C@@H]1CCN(C(=O)Cc2ccc3c(c2)sc2ncnc(Nc4ccc(OCc5cscn5)c(Cl)c4)c23)C1 [Example 136, N-[3-chloro-4-(1,3-thiazol-4-ylmethoxy)phenyl]-7-{2-[(3R)-3-(dimethylamino)pyrrolidin-1-yl]-2-oxoethyl}[1]benzothieno[2,3-d] pyrimidin-4-amine] | ≤ 5 | ≤ 0.5
O=C(Cc1ccc2c(c1)sc1ncnc(Nc3ccc(OCc4cscn4)c(Cl)c3)c12)N1CCOCC1 [Example 137, N-[3-chloro-4-(1,3-thiazol-4-ylmethoxy)phenyl]-7-(2-morpholin-4-yl-2-oxoethyl)[1]benzothieno [2,3-d]pyrimidin-4-amine] | ≤ 50 | ≤ 5
CN1CCN(C(=O)Cc2ccc3c(c2)sc2ncnc(Nc4ccc(OCc5cscn5)c(Cl)c4)c23)CC1 [Example 138, N-[3-chloro-4-(1,3-thiazol-4-ylmethoxy)phenyl]-7-[2-(4-methylpiperazin-1-yl)-2-oxoethyl][1]benzothieno[2,3-d] pyrimidin-4-amine] | ≤ 5 | ≤ 5
O=C(Cc1ccc2c(c1)sc1ncnc(Nc3ccc(OCc4cscn4)c(Cl)c3)c12)NCCCN1CCOCC1 [Example 139, 2-(4-{[3-chloro-4-(1,3-thiazol-4-ylmethoxy)phenyl]amino}[1]benzothieno[2,3-d]pyrimidin-7-yl)-N-(3-morpholin-4-ylpropyl) acetamide] | ≤ 50 | ≤ 5
O=C(Cc1ccc2c(c1)sc1ncnc(Nc3ccc(OCc4cscn4)c(Cl)c3)c12)NCCN1CCOCC1 [Example 140, 2-(4-{[3-chloro-4-(1,3-thiazol-4-ylmethoxy)phenyl]amino}[1]benzothieno[2,3-d]pyrimidin-7-yl)-N-(2-morpholin-4-ylethyl) acetamide] | ≤ 50 | ≤ 5
O=C(Cc1ccc2c(c1)sc1ncnc(Nc3ccc(OCc4cscn4)c(Cl)c3)c12)NCCO [Example 141, 2-(4-{[3-chloro-4-(1,3-thiazol-4-ylmethoxy)phenyl]amino}[1]benzothieno[2,3-d]pyrimidin-7-yl)-N-(2-hydroxyethyl)acetamide] | ≤ 50 | ≤ 5
CN(C)CCNC(=O)Cc1ccc2c(c1)sc1ncnc(Nc3ccc(OCc4cscn4)c(Cl)c3)c12 [Example 142, 2-(4-{[3-chloro-4-(1,3-thiazol-4-ylmethoxy)phenyl]amino}[1]benzothieno[2,3-d]pyrimidin-7-yl)-N-[2-(dimethylamino)ethyl] acetamide] | ≤ 50 | ≤ 0.5
CN(C)[C@H]1CCN(C(=O)Cc2ccc3c(c2)sc2ncnc(Nc4ccc(OCc5cscn5)c(Cl)c4)c23)C1 [Example 143, N-[3-chloro-4-(1,3-thiazol-4-ylmethoxy)phenyl]-7-{2-[(3S)-3-(dimethylamino)pyrrolidin-1-yl]-2-oxoethyl}[1]benzothieno[2,3-d] pyrimidin-4-amine] | ≤ 5 | ≤ 0.5
O=C(Cc1ccc2c(c1)sc1ncnc(Nc3ccc(OCc4cscn4)c(Cl)c3)c12)NN1CCOCC1 [Example 144, 2-(4-{[3-chloro-4-(1,3-thiazol-4-ylmethoxy)phenyl]amino}[1]benzothieno[2,3-d]pyrimidin-7-yl)-N-morpholin-4-ylacetamide] | ≤ 50 | ≤ 5
O=C(Cc1ccc2c(c1)sc1ncnc(Nc3ccc(OCc4cscn4)c(Cl)c3)c12)NCCOCCO [Example 145, 2-(4-{[3-chloro-4-(1,3-thiazol-4-ylmethoxy)phenyl]amino}[1]benzothieno[2,3-d]pyrimidin-7-yl)-N-[2-(2-hydroxyethoxy)ethyl] acetamide] | ≤ 50 | ≤ 5
CCN1CCN(CCNC(=O)Cc2ccc3c(c2)sc2ncnc(Nc4ccc(OCc5cscn5)c(Cl)c4)c23)CC1 [Example 146, 2-(4-{[3-chloro-4-(1,3-thiazol-4-ylmethoxy)phenyl]amino}[1]benzothieno[2,3-d]pyrimidin-7-yl)-N-[2-(4-ethylpiperazin-1-yl)ethyl] acetamide] | ≤ 50 | ≤ 0.5
